System: liver transcriptome
Assay: AmpliSeq liver transcriptome of HFD-F mice
Assay type: in vivo
Conditions: liver
Source text: C57BL/6J male mice were fed a high fat diet (HFD) containing 59 KJ% fat plus 1% cholesterol, w/o sugar (ssniff ® EF R/M acc. D12330 mod. 22,7 ME/kg) and fructose (HFD-F) in drinking water (42 g/L), or normal chow diet for 61 days. Food intake was estimated as the difference of weight between the offered and the remnant amount of food at 3-days intervals. The food was provided as pressed pellets and the residual spillage was not considered. After 7 days, HFD-F mice were randomized to receive HFD-F alone or in combination with compound 2 (30 mg/kg/day) by gavage until the end of the experiment. Doses of each agent were chosen according to previously published data. Mice were housed under controlled temperature (22°C) and photoperiods (12:12-h light/dark cycle), allowed unrestricted access to standard mouse chow and tap water. The experimental protocol was approved by the Animal Care and Use Committee of the University of Perugia and by the Italian Minister of Health and Istituto Superiore di Sanità (Italy) and was in agreement with the European guidelines for use of experimental animals (permission n. 583/2017-PR). The general health of the animals was monitored daily by the Veterinarian in the animal facility. At the day of sacrifice, fed mice were deeply anesthetized with a mixture of tiletamine hypochloride and zolazepam hypochloride/xylazine at a dose of 50/5 mg/kg and sacrificed before 12 a.m.
High-quality RNA was extracted from mice livers, using the Direct-zol™ RNA MiniPrep w/Zymo-Spin™ IIC Columns (Zymo Research, Irvine, CA) according to the manufacturer’s instructions. RNA quality and quantity were assessed with the Qubit® RNA HS Assay Kit and a Qubit 3.0 fluorometer (Invitrogen, Carlsbad, CA) followed by agarose gel electrophoresis. Libraries were generated using the Ion AmpliSeq™ Transcriptome Mouse Gene Expression Core Panel and Chef-Ready Kit (Comprehensive evaluation of AmpliSeq transcriptome, a whole transcriptome RNA sequencing methodology) (Thermo Fisher Scientific, Waltham, MA). Briefly, 10 ng of RNA was reverse transcribed with SuperScript™ Vilo™ cDNA Synthesis Kit (Thermo Fisher Scientific, Waltham, MA) before library preparation on the Ion Chef™ instrument (Thermo Fisher Scientific, Waltham, MA). The resulting cDNA was amplified to prepare barcoded libraries using the Ion Code™ PCR Plate, and the Ion AmpliSeq™ Transcriptome Mouse Gene Expression Core Panel (Thermo Fisher Scientific, Waltham, MA), Chef-Ready Kit, according to the manufacturer’s instructions. Barcoded libraries were combined to a final concentration of 100 p.m., and used to prepare Template-Positive Ion Sphere™ (Thermo Fisher Scientific, Waltham, MA) Particles to load on Ion 540™ Chips, using the Ion 540™ Kit-Chef (Thermo Fisher Scientific, Waltham, MA). Sequencing was performed on an Ion S5™ Sequencer with Torrent Suite™ Software v6 (Thermo Fisher Scientific, Waltham, MA). The analyses were performed with a range of fold <−2 and >+2 and a p value <0.05, using Transcriptome Analysis Console Software (version 4.0.1), certified for AmpliSeq analysis (Thermo-Fisher). The transcriptomic data have been deposited as dataset on Mendeley data repository (reference number linking to the repository: Fiorucci, Stefano; Biagioli, Michele; Marchianò, Silvia; Di Giorgio, Cristina (2021), “Discovery of potent dual GPBAR1/CysLT1R modulator for the treatment of metabolic fatty liver disease,” Mendeley Data, V1, doi: 10.17632/6dnrk9fc72.1).

Question: Which “Gdf15 transcript Avg (log2)” value (HFD + compound 2) does the source give for `O=C(O)c1cccc(-c2ccc(OCc3ccc4ccccc4n3)cc2)c1` [Compound 2, 4'-(quinolin-2-ylmethoxy)-[1,1′-biphenyl]-3-carboxylic acid] here?
Answer: 3.91 log2

Question: And the “Glipr1 transcript Avg (log2)” value (HFD + compound 2)?
Answer: 0.71 log2

Question: What about the “Glipr2 transcript Avg (log2)” value (HFD + compound 2) of the same compound?
Answer: 1.26 log2

Question: What about the “Gm16063 transcript Avg (log2)” value (HFD + compound 2) of the same compound?
Answer: 1.79 log2

Question: And the “Gm30692 transcript Avg (log2)” value (HFD + compound 2)?
Answer: 0.5 log2

Question: And the “Gm31555 transcript Avg (log2)” value (HFD + compound 2)?
Answer: 1.31 log2

Question: What about the “Gm31649 transcript Avg (log2)” value (HFD + compound 2) of the same compound?
Answer: 2.75 log2

Question: What about the “Gm36796 transcript Avg (log2)” value (HFD + compound 2) of the same compound?
Answer: 1.53 log2

Question: What about the “Gnat1 transcript Avg (log2)” value (HFD + compound 2) of the same compound?
Answer: 3.01 log2

Question: And the “Gngt1 transcript Avg (log2)” value (HFD + compound 2)?
Answer: 1.67 log2

Question: And the “Gpnmb transcript Avg (log2)” value (HFD + compound 2)?
Answer: 0.3 log2

Question: And the “Hnf4aos transcript Avg (log2)” value (HFD + compound 2)?
Answer: 3.75 log2

Question: And the “Hnrnpa0 transcript Avg (log2)” value (HFD + compound 2)?
Answer: 2.3 log2

Question: What about the “Hspa5 transcript Avg (log2)” value (HFD + compound 2) of the same compound?
Answer: 8.51 log2

Question: And the “Igip transcript Avg (log2)” value (HFD + compound 2)?
Answer: 2.38 log2

Question: And the “Il1b transcript Avg (log2)” value (HFD + compound 2)?
Answer: 1.8 log2

Question: What about the “Il1rn transcript Avg (log2)” value (HFD + compound 2) of the same compound?
Answer: 1.01 log2

Question: What about the “Insig2 transcript Avg (log2)” value (HFD + compound 2) of the same compound?
Answer: 5.39 log2

Question: What about the “Itgam transcript Avg (log2)” value (HFD + compound 2) of the same compound?
Answer: 0.58 log2

Question: What about the “Kif20a transcript Avg (log2)” value (HFD + compound 2) of the same compound?
Answer: 1.39 log2

Question: And the “LOC108167447 transcript Avg (log2)” value (HFD + compound 2)?
Answer: 2.05 log2

Question: And the “LOC108168323 transcript Avg (log2)” value (HFD + compound 2)?
Answer: 1.86 log2

Question: And the “Lactb2 transcript Avg (log2)” value (HFD + compound 2)?
Answer: 3.85 log2

Question: And the “Ly6d transcript Avg (log2)” value (HFD + compound 2)?
Answer: 1.72 log2

Question: And the “Meg3 transcript Avg (log2)” value (HFD + compound 2)?
Answer: 4.04 log2

Question: What about the “Mettl9 transcript Avg (log2)” value (HFD + compound 2) of the same compound?
Answer: 4.9 log2

Question: And the “Mki67 transcript Avg (log2)” value (HFD + compound 2)?
Answer: 1.5 log2

Question: And the “Mogat1 transcript Avg (log2)” value (HFD + compound 2)?
Answer: 2.35 log2

Question: What about the “Mthfd2 transcript Avg (log2)” value (HFD + compound 2) of the same compound?
Answer: 1.97 log2

Question: And the “Mvd transcript Avg (log2)” value (HFD + compound 2)?
Answer: 1.98 log2

Question: And the “Nat8 transcript Avg (log2)” value (HFD + compound 2)?
Answer: 3.26 log2

Question: And the “Neat1 transcript Avg (log2)” value (HFD + compound 2)?
Answer: 7.09 log2

Question: And the “Npas2 transcript Avg (log2)” value (HFD + compound 2)?
Answer: 0.62 log2

Question: What about the “Nr4a1 transcript Avg (log2)” value (HFD + compound 2) of the same compound?
Answer: 3.27 log2

Question: What about the “Nrep transcript Avg (log2)” value (HFD + compound 2) of the same compound?
Answer: 6.14 log2

Question: And the “Nuak2 transcript Avg (log2)” value (HFD + compound 2)?
Answer: 5.66 log2

Question: What about the “Pcbp1 transcript Avg (log2)” value (HFD + compound 2) of the same compound?
Answer: 2.29 log2

Question: What about the “Pcp4l1 transcript Avg (log2)” value (HFD + compound 2) of the same compound?
Answer: 3.46 log2

Question: What about the “Pdilt transcript Avg (log2)” value (HFD + compound 2) of the same compound?
Answer: 4.25 log2

Question: And the “Pdpn transcript Avg (log2)” value (HFD + compound 2)?
Answer: 0.96 log2

Question: And the “Per3 transcript Avg (log2)” value (HFD + compound 2)?
Answer: 5.27 log2

Question: What about the “Plau transcript Avg (log2)” value (HFD + compound 2) of the same compound?
Answer: 1.27 log2

Question: And the “Plaur transcript Avg (log2)” value (HFD + compound 2)?
Answer: 1.66 log2

Question: What about the “Pld6 transcript Avg (log2)” value (HFD + compound 2) of the same compound?
Answer: 4.01 log2

Question: What about the “Plekhg3 transcript Avg (log2)” value (HFD + compound 2) of the same compound?
Answer: 6.24 log2

Question: And the “Plxnc1 transcript Avg (log2)” value (HFD + compound 2)?
Answer: 2.12 log2

Question: What about the “Pnpla3 transcript Avg (log2)” value (HFD + compound 2) of the same compound?
Answer: 4 log2

Question: What about the “Podn transcript Avg (log2)” value (HFD + compound 2) of the same compound?
Answer: 3.56 log2

Question: And the “Ppp1r3c transcript Avg (log2)” value (HFD + compound 2)?
Answer: 4.08 log2

Question: And the “Prox1 transcript Avg (log2)” value (HFD + compound 2)?
Answer: 7.62 log2

Question: What about the “Psat1 transcript Avg (log2)” value (HFD + compound 2) of the same compound?
Answer: 0.72 log2

Question: What about the “Ptgs2 transcript Avg (log2)” value (HFD + compound 2) of the same compound?
Answer: 0.21 log2

Question: And the “Raet1e transcript Avg (log2)” value (HFD + compound 2)?
Answer: 1.49 log2

Question: And the “Raet1d transcript Avg (log2)” value (HFD + compound 2)?
Answer: 2.83 log2

Question: What about the “Ralbp1 transcript Avg (log2)” value (HFD + compound 2) of the same compound?
Answer: 3.21 log2

Question: And the “Rhob transcript Avg (log2)” value (HFD + compound 2)?
Answer: 3.81 log2

Question: What about the “Rrs1 transcript Avg (log2)” value (HFD + compound 2) of the same compound?
Answer: 1.59 log2

Question: And the “Saa4 transcript Avg (log2)” value (HFD + compound 2)?
Answer: 9.44 log2

Question: And the “Sart3 transcript Avg (log2)” value (HFD + compound 2)?
Answer: 4.81 log2

Question: And the “Sbk1 transcript Avg (log2)” value (HFD + compound 2)?
Answer: 4.33 log2

Question: And the “Sec11c transcript Avg (log2)” value (HFD + compound 2)?
Answer: 3.53 log2

Question: What about the “Senp1 transcript Avg (log2)” value (HFD + compound 2) of the same compound?
Answer: 3.87 log2

Question: What about the “Serpina7 transcript Avg (log2)” value (HFD + compound 2) of the same compound?
Answer: 4.57 log2

Question: What about the “Serpine1 transcript Avg (log2)” value (HFD + compound 2) of the same compound?
Answer: 2.19 log2

Question: What about the “Slc16a1 transcript Avg (log2)” value (HFD + compound 2) of the same compound?
Answer: 2.98 log2

Question: And the “Slc17a8 transcript Avg (log2)” value (HFD + compound 2)?
Answer: 2.05 log2

Question: And the “Slc39a8 transcript Avg (log2)” value (HFD + compound 2)?
Answer: 3.52 log2

Question: What about the “Slc40a1 transcript Avg (log2)” value (HFD + compound 2) of the same compound?
Answer: 3.94 log2

Question: What about the “Slc46a3 transcript Avg (log2)” value (HFD + compound 2) of the same compound?
Answer: 4.69 log2

Question: And the “Spon2 transcript Avg (log2)” value (HFD + compound 2)?
Answer: 1.99 log2

Question: What about the “Sqle transcript Avg (log2)” value (HFD-F + compound 2) of the same compound?
Answer: 1.02 log2

Question: What about the “Stfa3 transcript Avg (log2)” value (HFD-F + compound 2) of the same compound?
Answer: 0 log2

Question: What about the “Taok3 transcript Avg (log2)” value (HFD-F + compound 2) of the same compound?
Answer: 6.27 log2

Question: And the “Tk1 transcript Avg (log2)” value (HFD-F + compound 2)?
Answer: 5.13 log2

Question: What about the “Tmx1 transcript Avg (log2)” value (HFD-F + compound 2) of the same compound?
Answer: 5.44 log2

Question: And the “Tnf transcript Avg (log2)” value (HFD-F + compound 2)?
Answer: 0.14 log2

Question: What about the “Tnfrsf23 transcript Avg (log2)” value (HFD-F + compound 2) of the same compound?
Answer: 0.63 log2

Question: And the “Tnnc1 transcript Avg (log2)” value (HFD-F + compound 2)?
Answer: 1.54 log2

Question: And the “Tsku transcript Avg (log2)” value (HFD-F + compound 2)?
Answer: 4.72 log2

Question: And the “Ubqln2 transcript Avg (log2)” value (HFD-F + compound 2)?
Answer: 2.22 log2

Source: article PMC9085577, “Discovery of a Potent and Orally Active Dual GPBAR1/CysLT1R Modulator for the Treatment of Metabolic Fatty Liver Disease” (Frontiers in Pharmacology, 2022)
